Drawing on patent US11976083B2, “Inhibitors of peptidylarginine deiminases” (Gilead Sciences, Inc., priority 2020, dated 2024), this text covers IC50 for 18 molecules.

In this assay the target is T1, human PAD4 (Homo sapiens, UniProt Q9UM07).
T1 construct: human PAD4 (NM_012387), A2-P663, was PCR amplified; His-SUMO (N, cleaved yes); made in house; host or cells: E. coli BL21(DE3)
The assay is described as follows: In vitro PAD4 BAEE biochemical assay. The following applies: BAEE substrate 3 mM, 5 nM PAD4, 2 mM calcium chloride; geometric mean of multiple experiments. The procedure, abridged:
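Assay was run at 25 °C using 3 mM BAEE and 5 nM human PAD4 after a 30 min compound preincubation; ammonia produced over 2 h was quantified by OPA-derived fluorescence. Full inhibition was defined by 50 µM BB-Cl-Amidine, and IC50 came from variable-slope nonlinear regression.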

As a reminder, the IC50 is the concentration at which inhibition is half-maximal.

T1 sequence (Q9UM07 2-663): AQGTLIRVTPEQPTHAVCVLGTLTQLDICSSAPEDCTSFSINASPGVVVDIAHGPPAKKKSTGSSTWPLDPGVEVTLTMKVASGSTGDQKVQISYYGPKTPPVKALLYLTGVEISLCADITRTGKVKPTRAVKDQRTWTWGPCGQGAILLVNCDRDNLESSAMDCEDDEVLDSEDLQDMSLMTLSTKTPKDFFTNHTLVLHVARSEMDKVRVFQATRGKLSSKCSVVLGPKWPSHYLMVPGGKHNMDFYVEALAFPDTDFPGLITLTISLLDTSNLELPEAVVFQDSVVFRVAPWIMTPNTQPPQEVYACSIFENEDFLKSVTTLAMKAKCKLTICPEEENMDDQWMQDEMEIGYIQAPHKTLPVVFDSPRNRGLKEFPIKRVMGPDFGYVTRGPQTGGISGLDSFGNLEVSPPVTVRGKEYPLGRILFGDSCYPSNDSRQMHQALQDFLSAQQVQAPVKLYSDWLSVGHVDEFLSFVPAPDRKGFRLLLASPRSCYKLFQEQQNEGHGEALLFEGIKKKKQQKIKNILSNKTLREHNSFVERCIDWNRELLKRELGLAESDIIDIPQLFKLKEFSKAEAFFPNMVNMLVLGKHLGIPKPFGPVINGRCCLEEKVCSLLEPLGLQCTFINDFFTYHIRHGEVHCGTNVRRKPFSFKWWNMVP

For the molecule `COc1cc(C(=O)N2CCC[C@@H](N)C2)cc2nc(-c3cc4ccc5nc4n3CCCCCCNC(=O)c3c-5ccnc3F)n(C)c12` [Example 56, 17-[5-[(3~{R})-3-aminopiperidine-1-carbonyl]-7-methoxy-1-methyl-benzimidazol-2-yl]-6-fluoro-5,9,16,22-tetrazatetracyclo[14.5.2.0^{2,7}.0^{19,23}] tricosa-1(22),2,4,6,17,19(23),20-heptaen-8-one], the concentration for half-maximal inhibition (IC50) came to 193 nM. For `COc1cc(C(=O)N2[C@H]3CC[C@@H]2[C@H](N)C3)cc2nc(-c3cc4ccc5nc4n3C/C=C\CCCCS(=O)(=O)N[C@@H]5C)n(C)c12` [Example 23, [(1˜{R},2˜{R},4˜{S})-2-amino-7-azabicyclo[2.2.1]heptan-7-yl]-[7-methoxy-1-methyl-2-[(11˜{R})-11-methyl-9,9-dioxo-9$1^6-thia-1,10,19-triazatricyclo[10.5.2.0^{15,18}]nonadeca-3,12(19),13,15(18),16-pentaen-17-yl]benzimidazol-5-yl]methanone], the IC50 came out at 40 nM. To `C[C@@H]1[C@H](N)CCCN1C(=O)c1cc(F)c2c(c1)nc(-c1cc3ccc4nc3n1CC(F)(F)CCC[C@@H]1C[C@H]1C(=O)N[C@@H]4C)n2C1CC1` [Example 639, (2~{R},5~{R},7~{R})-14-[5-[(2~{R},3~{R})-3-amino-2-methyl-piperidine-1-carbonyl]-1-cyclopropyl-7-fluoro-benzimidazol-2-yl]-11,11-difluoro-2-methyl-3,13,19-triazatetracyclo[11.5.2.0^ {5,7}.0^{16,20}]icosa-1(19),14,16(20),17-tetraen-4-one] belongs 15 nM. Turning to `COc1cc(C(=O)N2CC[C@@H](CO)[C@H](N)C2)cc2nc(-c3cc4ccc5nc4n3CCCCCCC(C)(C)C(=O)N[C@@H]5C)n(C)c12` [Example 66, (11˜{R})-17-[5-[(3˜{S},4˜{R})-3-amino-4-(hydroxymethyl)piperidine-1-carbonyl]-7-methoxy-1-methyl-benzimidazol-2-yl]-8,8,11-trimethyl-1,10,19-triazatricyclo[10.5.2.0^{15,18}]nonadeca-12(19),13,15(18),16-tetraen-9-one], the IC50 was found to be 1160 nM. For `C[C@H]1NC(=O)[C@@H]2C[C@H]2CCCCCn2c(-c3nc4cc(C(=O)N[C@H]5CNCC[C@@H]5F)c(F)cc4n3C3C[C@@H]3C(F)F)cc3ccc1nc32` (single isomer, unassigned) [Example 410, 1-[(1~{R},2~{S})-2-(difluoromethyl)cyclopropyl]-6-fluoro-~ {N}-[(3~{S},4~{S})-4-fluoro-3-piperidyl]-2-[(2~{R},5~{R},7~{R})-2-methyl-4-oxo-3,13,19-triazatetracyclo[11.5.2.0^{5,7}.0^{16,20}]icosa-1(19),14,16(20),17-tetraen-14-yl]benzimidazole-5-carboxamide], the IC50 is 51 nM.

With `COc1cc(C(=O)N2CCC[C@@H](N)C2)cc2nc(-c3cc4ccc5nc4n3CCCOC[C@@H]3C[C@@H]3C(=O)N[C@@H]5C)n(C)c12` [Example 309, (2~{R},5~{S},7~{R})-14-[5-[(3~{R})-3-aminopiperidine-1-carbonyl]-7-methoxy-1-methyl-benzimidazol-2-yl]-2-methyl-9-oxa-3,13,19-triazatetracyclo[11.5.2.0^{5,7}.0^{16,20}] icosa-1(19),14,16(20),17-tetraen-4-one], the half-inhibitory concentration (IC50) came out at 1380 nM. On to `COc1cc(C(=O)N2CCC[C@@H](N)[C@H]2C)cc2nc(-c3cc4ccc5nc4n3CCCCCCC3(COC3)C(=O)N[C@@H]5C)n(C)c12` [Example 799, (11~{R})-17-[5-[(2~{R},3~{R})-3-amino-2-methyl-piperidine-1-carbonyl]-7-methoxy-1-methyl-benzimidazol-2-yl]-11-methyl-spiro[1,10,19-triazatricyclo[10.5.2.0^ {15,18}]nonadeca-12,14,16,18-tetraene-8,3′-oxetane]-9-one], for which the IC50 worked out at 12 nM. The result for `COc1cc(C(=O)N2CCC[C@@H](N)C2)cc2nc(-c3cc4ccc5cc4n3CCCCCCC3(CC3)C(=O)N[C@@H]5C)n(C)c12` [Example 155, (11~{R})-17-[5-[(3~{R})-3-aminopiperidine-1-carbonyl]-7-methoxy-1-methyl-benzimidazol-2-yl]-11-methyl-spiro[1,10-diazatricyclo[10.5.2.0^{15,18}]nonadeca-12(19),13,15(18),16-tetraene-8,1′-cyclopropane]-9-one] reads 77 nM; that for `COc1cc(C(=O)N2[C@H]3CC[C@@H]2[C@H](N)C3)cc2nc(-c3cc4ccc5nc4n3CCCCCC[C@H](OC)C(=O)N[C@@H]5C)c(C)n12` (single isomer, unassigned) [Example 335, (8˜{S},11˜{R})-17-[7-[(1˜{R},2˜{R},4˜{S})-2-amino-7-azabicyclo[2.2.1]heptane-7-carbonyl]-5-methoxy-3-methyl-imidazo[1,2-a]pyridin-2-yl]-8-methoxy-11-methyl-1,10,19-triazatricyclo[10.5.2.0^{15,18}]nonadeca-12(19),13,15(18),16-tetraen-9-one], 32 nM; that for `COc1cc(C(=O)N2CC[C@@H](OC(F)F)[C@@H](N)C2)cc2nc(-c3cc4ccc5nc4n3CCCCCc3ccccc3C(=O)N[C@@H]5C)n(C)c12` [Example 491, (2~{R})-17-[5-[(3~ {S},4~{R})-3-amino-4-(difluoromethoxy)piperidine-1-carbonyl]-7-methoxy-1-methyl-benzimidazol-2-yl]-2-methyl-3,16,22-triazatetracyclo [14.5.2.0^{5,10}.0^{19,23}] tricosa-1(22),5(10), 6,8,17,19(23),20-heptaen-4-one], 253 nM. In the case of `Cc1cc2c(cc1C(=O)N[C@H]1CNCC[C@@H]1F)nc(-c1cc3ccc4nc3n1CC(F)(F)CCC[C@@H]1C[C@H]1C(=O)N[C@@H]4C)n2C` [Example 551, 2-[(2~{R},5~{R},7~ {R})-11,11-difluoro-2-methyl-4-oxo-3,13,19-triazatetracyclo[11.5.2.0^ {5,7).0^{16,20}]icosa-1(19),14,16(20),17-tetraen-14-yl]-~{N}-[(3~ {S},4~{S})-4-fluoro-3-piperidyl]-1,6-dimethyl-benzimidazole-5-carboxamide], the IC50 is 43 nM. `COc1cc(C(=O)N2CCC[C@@H](N)[C@H]2C)cc2nc(-c3cc4ccc5nc4n3CCCCCCC(C)(C)C(=O)N[C@@H]5C)n(C)c12` [Example 15, (11~{R})-17-[5-[(2~{R},3~{R})-3-amino-2-methyl-piperidine-1-carbonyl]-7-methoxy-1-methyl-benzimidazol-2-yl]-8,8,11-trimethyl-1,10,19-triazatricyclo[10.5.2.0^{15,18}]nonadeca-12(19),13,15(18),16-tetraen-9-one]: the IC50 was found to be 60 nM.

Turning to `COc1cccc2c1C(=O)N[C@H](C)c1ccc3cc(-c4nc5cc(C(=O)N6CC[C@@H](OC)[C@@H](N)C6)cc(OC)c5n4C)n(c3n1)CCCCC2` [Example 854, (2~{R})-17-[5-[(3~{S},4~{R})-3-amino-4-methoxy-piperidine-1-carbonyl]-7-methoxy-1-methyl-benzimidazol-2-yl]-6-methoxy-2-methyl-3,16,22-triazatetracyclo[14.5.2.0^ {5,10}.0^{19,23}]tricosa-1(22),5(10),6,8,17,19(23),20-heptaen-4-one], the IC50 was found to be 68 nM. As for `COc1cc(C(=O)N2C[C@H](N)CCN2C)cc2nc(-c3cc4ccc5nc4n3CCCCCc3ccccc3C(=O)N[C@@H]5C)n(C)c12` [Example 44, (2~{R})-17-[5-[(5~{R})-5-amino-2-methyl-hexahydropyridazine-1-carbonyl]-7-methoxy-1-methyl-benzimidazol-2-yl]-2-methyl-3,16,22-triazatetracyclo[14.5.2.0^{5,10}.0^{19,23}] tricosa-1(22),5,7,9,17,19(23),20-heptaen-4-one], the IC50 was 64 nM. As to `CO[C@@H]1CCN(C(=O)c2cc(F)c3c(c2)nc(-c2cc4ccc5nc4n2CCCCCC[C@@H](c2cccc(Cl)n2)C(=O)N[C@@H]5C)n3C2CC2)C[C@@H]1N` [Example 873, (8~{S},11~{R})-17-[5-[(3~{S}, 4~{R})-3-amino-4-methoxy-piperidine-1-carbonyl]-1-cyclopropyl-7-fluoro-benzimidazol-2-yl]-8-(6-chloro-2-pyridyl)-11-methyl-1,10,19-triazatricyclo[10.5.2.0^{15,18}] nonadeca-12(19), 13,15(18),16-tetraen-9-one], the IC50 was determined as 120 nM. With `COc1cc(C(=O)N2[C@H]3CC[C@@H]2[C@H](N)C3)cc2nc(-c3cc4ccc5nc4n3CCCCOc3ccccc3C(=O)N[C@@H]5C)n(C)c12` [Example 41, (2~{R})-17-[5-[(1~{R),2~{R},4~{S})-2-amino-7-azabicyclo[2.2.1]heptane-7-carbonyl]-7-methoxy-1-methyl-benzimidazol-2-yl]-2-methyl-11-oxa-3,16,22-triazatetracyclo[14.5.2.0^{5,10}.0^{19,23}] tricosa-1(22),5,7,9,17,19(23),20-heptaen-4-one], the IC50 worked out at 268 nM. To `COc1cc(C(=O)N2CC[C@@H](OC)[C@@H](N)C2)cc2nc(-c3cc4ccc5nc4n3CCCCC[C@H]3C(F)(F)[C@]3(C)C(=O)N[C@@H]5C)n(C)c12` [Example 694, (2~{R},5~{S},7~{R})-14-[5-[(3~{S},4~{R})-3-amino-4-methoxy-piperidine-1-carbonyl]-7-methoxy-1-methyl-benzimidazol-2-yl]-6,6-difluoro-2,5-dimethyl-3,13,19-triazatetracyclo[11.5.2.0^ {5,7}.0^{16,20}]icosa-1(19), 14,16(20),17-tetraen-4-one] belongs 268 nM; to `COc1cc(C(=O)N2CCC[C@@H](N)[C@H]2C(F)F)cc2nc(-c3cc4ccc5nc4n3CCCCCCC(C)(C)C(=O)N[C@@H]5C)n(C)c12` [Example 644, (11~{R})-17-[5-[(2~{S), 3~{R})-3-amino-2-(difluoromethyl)piperidine-1-carbonyl]-7-methoxy-1-methyl-benzimidazol-2-yl]-8,8,11-trimethyl-1,10,19-triazatricyclo [10.5.2.0^{15,18}]nonadeca-12(19),13,15(18),16-tetraen-9-one], 76 nM.
